Data from patent US20150133401A1, “COMBINATION THERAPY INVOLVING A VASCULAR DISRUPTING AGENT AND AN AGENT WHICH TARGETS HYPOXIA” (BIONOMICS LIMITED, priority 2012, published 2015).

Key:
[1] = tested on: RENCA (VHL wildtype) orthotopic tumour; assay: Immunohistochemistry of unfolded protein response markers in RENCA orthotopic tumour sections; format: in vivo, Balb/c mice; conditions: 24 hours after a single dose i.v. 32 mg/kg
From the text: (Fast Red detection on hematoxylin)

Colo205 colon carcinoma = assay: Tumour hypoxia / disruption of tumour vasculature in Colo205 tumours; format: in vivo
Calu-6 lung carcinoma = assay: Tumour hypoxia / disruption of tumour vasculature in Calu-6 tumours; format: in vivo
[2] = tested on: MDA-MB-231 breast carcinoma; assay: Tumour hypoxia / disruption of tumour vasculature in MDA-MB-231 tumours; format: in vivo
[3] = tested on: DU-145 prostate carcinoma; assay: Tumour hypoxia / disruption of tumour vasculature in DU-145 tumours; format: in vivo
RENCA orthotopic tumour = assay: TUNEL assay of necrosis in RENCA orthotopic tumour sections; format: in vivo, Balb/c mice; conditions: 4 hours after dosing BNC105 on Day 9; Bortezomib 0.5 mg/kg iv Days 1, 5, 8; BNC105 32 mg/kg iv Days 2 and 9
Procedure: RENCA orthotopic tumour bearing kidneys from Balb/c mice were photographed 4 hours after dosing BNC105 on Day 9 of treatment (Bortezomib 0.5 mg/kg iv Days 1, 5, 8, BNC105 32 mg/kg iv Days 2 and 9). Formalin fixed and paraffin embedded sections were stained using a TUNEL assay (Roche) to visualize cell necrosis.

[4] = tested on: tumour endothelial cells (activated) and normal endothelial cells (quiescent); assay: Selectivity between activated (tumour) and quiescent (normal) endothelial cells; format: cell-based
From the text: An important aspect of the compounds of formulae I, Ia, Ib, II and III is the combination of the specific C-6 and C-7 substituents together with the C-2 Q-group (especially C-2 methyl) which appears to confer greater potency and selectivity when compared to other structurally related TPI compounds. In these compounds selectivity is not simply reliant on the predisposition of tumour vasculature towards collapse when challenged with the VDA but on a capacity of the VDA to distinguish between tumour endothelial cells and normal endothelial cells. Normal endothelial cells, found in healthy tissues, are in a “quiescent” state and tumour endothelial cells are in an “activated” state.

[5] = tested on: RENCA (VHL wildtype) orthotopic tumour; assay: Tumour growth inhibition by weight of RENCA orthotopic tumour bearing kidneys; format: in vivo, Balb/c mice; conditions: kidneys weighed on Day 10 of treatment; Pazopanib 30 mg/kg p.o. daily, BNC105 16 mg/kg i.v. Days 2 and 9; FIG. 3
Procedure: FIG. 3 Right kidney weight (mg)±SEM of mice bearing RENCA kidney tumours treated with BNC105P, Pazopanib or BNC105P+Pazopanib.
RENCA (VHL wildtype) orthotopic tumour bearing kidneys from Balb/c mice were weighed on Day 10 day of treatment (Pazopanib 30 mg/kg, p.o. Daily, BNC105 16 mg/kg i.v. Days 2 and 9).

RENCA renal tumours = assay: Vascular shutdown and hypoxia response markers in RENCA renal tumours; format: in vivo
tumor mass = assay: Histological changes caused by BNC105 anti-tumor action (tumor necrosis); format: in vivo; conditions: histology; peripheral regions remain viable
From the text: Based on investigations on the histological changes caused by BNC105 anti-tumor action, it was established that >95% of the tumor mass becomes necrotic, while peripheral regions remain viable. […] Among these is the angiogenesis growth factor VEGF. The present inventors sought to investigate the potential therapeutic benefit of combining BNC105 with an inhibitor of the VEGF/VEGFR2 signalling pathway.

COc1cc(C(=O)c2c(C)oc3c(OP(=O)([O-])[O-])c(OC)ccc23)cc(OC)c1OC.[Na+].[Na+] [BNC105P, Disodium 6-methoxy-2-methyl-3-(3,4,5-trimethoxybenzoyl)benzofuran-7-yl phosphate]
unfolded protein response markers PERK and phosphorylation of eIF2α [1]: upregulation of unfolded protein response markers | tumour hypoxia by disruption of tumour vasculature (Colo205 colon carcinoma): increase tumour hypoxia | tumour hypoxia by disruption of tumour vasculature (Calu-6 lung carcinoma): increase tumour hypoxia | tumour hypoxia by disruption of tumour vasculature ([2]; MDA-MB-231 breast carcinoma): increase tumour hypoxia | apoptotic cells ([2]; MDA-MB-231 tumours): increase in apoptotic cells | blood vessel integrity ([2]; MDA-MB-231 tumours): damage of blood vessel integrity | release of angiogenic growth factor VEGF ([2]; MDA-MB-231 tumours): release of the angiogenic growth factor VEGF | tumour endothelial cells ([2]; MDA-MB-231 tumours): destruction of tumour endothelial cells | tumour hypoxia by disruption of tumour vasculature [3]: increase tumour hypoxia

CC(C)C[C@H](NC(=O)[C@H](Cc1ccccc1)NC(=O)c1cnccn1)B(O)O [Bortezomib, reference compound]
tumor necrosis (TUNEL staining) (RENCA orthotopic tumour): Very little tumor necrosis

COc1ccc(/C=C\c2cc(OC)c(OC)c(OC)c2)cc1O [Combretastatin A4 (CA4), Combretastatin A4, reference compound]
potency against quiescent versus activated endothelial cells (selectivity) [4]: equally potent against quiescent and activated endothelial cells

Cc1ccc(Nc2nccc(N(C)c3ccc4c(C)n(C)nc4c3)n2)cc1S(N)(=O)=O [Pazopanib, reference compound]
tumour growth inhibition [5]: 19%

COc1cc(C(=O)c2c(C)oc3c(O)c(OC)ccc23)cc(OC)c1OC [BNC105, 2-Methyl-7-hydroxy-3-(3,4,5-trimethoxybenzoyl)-6-methoxybenzofuran]
tumor necrosis (TUNEL staining) (RENCA orthotopic tumour): Very little tumor necrosis | potency against quiescent versus activated endothelial cells (selectivity) [4]: show selectivity towards tumor endothelial cells (activated) over normal endothelial cells (quiescent) | vascular shutdown (RENCA renal tumours): induced vascular shutdown | CXCL12 and MMP-9 levels (RENCA renal tumours; induced hypoxia): increase in CXCL12 and MMP-9 | GLUT1, HIF-1a, PERK, eIF2a and VEGF levels (RENCA renal tumours; on vascular shutdown): increase GLUT1, HIF-1a, PERK, eIF2a and VEGF | tumour growth inhibition [5]: 21% | tumor mass that becomes necrotic (tumor mass): > 95%
